Experimental data taken from patent US10077271B2, “Methods and compositions for inhibiting the interaction of menin with MLL proteins” (Kura Oncology, Inc., priority 2015, dated 2018).

molecular target: T1, Menin MLL 4-43 (Homo sapiens, UniProt O00255); test: Inhibition of the menin-MLL interaction (Menin MLL 4-43 IC50); type: binding; settings: Formula II inhibitors of menin (Table 4G)
T1 construct: 6His
T1 sequence (O00255 1-610): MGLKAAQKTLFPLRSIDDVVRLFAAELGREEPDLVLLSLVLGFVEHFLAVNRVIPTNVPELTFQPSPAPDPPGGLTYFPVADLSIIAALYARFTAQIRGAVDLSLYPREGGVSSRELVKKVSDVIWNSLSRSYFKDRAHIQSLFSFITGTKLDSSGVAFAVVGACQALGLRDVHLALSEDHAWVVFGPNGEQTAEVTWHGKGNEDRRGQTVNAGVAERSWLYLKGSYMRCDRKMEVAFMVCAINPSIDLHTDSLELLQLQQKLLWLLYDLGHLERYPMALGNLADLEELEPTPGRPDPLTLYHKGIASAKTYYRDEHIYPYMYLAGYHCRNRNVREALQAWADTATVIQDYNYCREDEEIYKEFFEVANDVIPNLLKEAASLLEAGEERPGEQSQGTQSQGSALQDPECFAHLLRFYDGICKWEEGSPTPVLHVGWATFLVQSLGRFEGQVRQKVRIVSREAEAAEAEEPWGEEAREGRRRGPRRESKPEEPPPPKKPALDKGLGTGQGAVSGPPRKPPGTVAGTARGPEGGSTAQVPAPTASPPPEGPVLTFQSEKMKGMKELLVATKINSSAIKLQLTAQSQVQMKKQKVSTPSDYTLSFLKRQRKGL
Description: This example illustrates an assay effective in monitoring the binding of MLL to menin. […] A fluorescein-labeled peptide containing the high affinity menin binding motif found in MLL is produced according to Yokoyama et al. (Cell, 2005, 123(2): 207-218), herein incorporated by reference in its entirety. Binding of the labeled peptide (1.7 kDa) to the much larger menin (˜67 kDa) is accompanied by a significant change in the rotational correlation time of the fluorophore, resulting in a substantial increase in the fluorescence polarization and fluorescence anisotropy (excitation at 500 nm, emission at 525 nm).
A homogeneous time-resolve fluorescence (HTRF) assay is utilized as a secondary assay to confirm the results of the FP assay. In some embodiments, the HTRF assay is the primary assay and the FP assay is used as a secondary assay to confirm results. HTRF is based on the non-radiative energy transfer of the long-lived emission from the Europium cryptate (Eu^3+-cryptate) donor to the allophycocyanin (XL665) acceptor, combined with time-resolved detection. An Eu^3+-cryptate donor is conjugated with mouse anti-6His monoclonal antibody (which binds His-tagged menin) and XL665-acceptor is conjugate to streptavidin (which binds biotinylated MLL peptide). When these two fluorophores are brought together by the interaction of menin with the MLL peptide, energy transfer to the acceptor results in an increase in fluorescence emission at 665 nm and increased HTRF ratio (emission intensity at 665 nm/emission intensity at 620 nm). Inhibition of the menin-MLL interaction separates the donor from the acceptor, resulting in a decrease in emission at 665 nm and decreased HTRF ratio.

IC50 | SMILES
> 10 µM | Cc1c(CN2CCC(Nc3nc(C(F)F)nc4sc(CC(F)(F)F)cc34)CC2)ccc2c1cc(C#N)n2Cc1cn[nH]c1 [II-18]
0.1 to 1 µM | C=CC(=O)Nc1ccc(CCC2C(C#N)=Cc3c2ccc(CN2CCC(Nc4nc(N)nc5sc(CC(F)(F)F)cc45)CC2)c3C)cn1 (stereo not drawn) [II-19]

More lines, now with the values behind:

SMILES | IC50
Cc1c(CN2CCC(Nc3nc(N)nc4sc(CC(F)(F)F)cc34)CC2)ccc2c1cc(C#N)n2Cc1cn[nH]c1 [II-4] | ≤ 0.1 µM
Cc1c(CN2CCC(Nc3nc(Cl)nc4sc(CC(F)(F)F)cc34)CC2)ccc2[nH]c(C#N)cc12 [II-7] | > 10 µM
Cc1c(CN2CCC(Nc3nc(N)nc4sc(CC(F)(F)F)cc34)CC2)ccc2[nH]c(C#N)cc12 [II-3] | ≤ 0.1 µM
Cc1c(CN2CCC(Nc3nc(C#N)nc4sc(CC(F)(F)F)cc34)CC2)ccc2c1cc(C#N)n2Cc1cn[nH]c1 [II-14] | 1 to 10 µM
Cc1nc(NC2CCN(Cc3ccc4c(cc(C#N)n4Cc4cn[nH]c4)c3C)CC2)c2cc(CC(F)(F)F)sc2n1 [II-10] | ≤ 0.1 µM
C#Cc1nc(NC2CCN(Cc3ccc4c(cc(C#N)n4Cc4cn[nH]c4)c3C)CC2)c2cc(CC(F)(F)F)sc2n1 [II-17] | > 10 µM
Cc1c(CN2CCC(Nc3nc(C(F)(F)F)nc4sc(CC(F)(F)F)cc34)CC2)ccc2[nH]c(C#N)cc12 [II-11] | 0.1 to 1 µM
C=Cc1nc(NC2CCN(Cc3ccc4[nH]c(C#N)cc4c3C)CC2)c2cc(CC(F)(F)F)sc2n1 [II-15] | 0.1 to 1 µM
Cc1c(CN2CCC(Nc3nc(N)nc4sc(CC(F)(F)F)cc34)CC2)ccc2c1cc(C#N)n2Cc1cc[nH]n1 [II-16] | 0.1 to 1 µM

same assay, conditions: Formula III inhibitors of menin (Table 4h)

IC50 | SMILES
> 10 µM | Cc1c(CN2CCC(Nc3ncnc4sc(CC(F)(F)F)cc34)C(F)(F)C2)ccc2[nH]c(C#N)cc12 (stereo not drawn) [III-3]

same assay, conditions: Formula IV inhibitors of menin (Table 4i)

IC50 | SMILES
1 to 10 µM | Cc1c(CN2CCC(Nc3ncnc4sc(CC(F)(F)F)cc34)CC2)ccc2[nH]ncc12 [IV-9]
> 10 µM | Cc1c(CN2CCC(Nc3ncnc4sc(CC(F)(F)F)cc34)CC2)cnc2[nH]c(C#N)cc12 [IV-2]
0.1 to 1 µM | FC(F)(F)Cc1cc2c(NC3CCN(Cc4ccc5[nH]ncc5c4)CC3)ncnc2s1 [IV-8]

same assay, conditions: Formula V inhibitors of menin (Table 4J)

IC50 | SMILES
> 10 µM | Cc1c(CN2CCC(Nc3ncnc4sc(CC(F)(F)F)cc34)C2)ccc2[nH]c(C#N)cc12 (stereo not drawn) [Compound V-15]
> 10 µM | Cc1c(CN2CCN(C(=O)c3ncnc4sc(CC(F)(F)F)cc34)CC2)ccc2[nH]c(C#N)cc12 [Compound V-3]
> 10 µM | Cc1c(CN2CC(Nc3ncnc4sc(CC(F)(F)F)cc34)C2)ccc2[nH]c(C#N)cc12 [Compound V-13]
